From ChEMBL document CHEMBL4418495, “Entpd5 inhibitors” (2012)
Active and inactive are the calls of the source.

Experiments:
LNCaP [1] = test: Antitumor activity against human LNCAP cells xenografted in mouse assessed as reduction in cells left in matrigels at 1 to 100 mg/kg, ip dosed every other day and measured after 6 weeks by hematoxylin and eosin staining based microscopy; format: functional, organism-based
[2] = target: T1, Ectonucleoside triphosphate diphosphohydrolase 5 (Mus musculus) (UniProt Q9WUZ9); test: Inhibition of ENTPD5 in PTEN knockout mouse MEF cells assessed as induction of ER stress by measuring increase in GRP78/BiP expression at 30 uM incubated for 24 hrs by Western blotting analysis; format: cell-based
T1 sequence (whole entry): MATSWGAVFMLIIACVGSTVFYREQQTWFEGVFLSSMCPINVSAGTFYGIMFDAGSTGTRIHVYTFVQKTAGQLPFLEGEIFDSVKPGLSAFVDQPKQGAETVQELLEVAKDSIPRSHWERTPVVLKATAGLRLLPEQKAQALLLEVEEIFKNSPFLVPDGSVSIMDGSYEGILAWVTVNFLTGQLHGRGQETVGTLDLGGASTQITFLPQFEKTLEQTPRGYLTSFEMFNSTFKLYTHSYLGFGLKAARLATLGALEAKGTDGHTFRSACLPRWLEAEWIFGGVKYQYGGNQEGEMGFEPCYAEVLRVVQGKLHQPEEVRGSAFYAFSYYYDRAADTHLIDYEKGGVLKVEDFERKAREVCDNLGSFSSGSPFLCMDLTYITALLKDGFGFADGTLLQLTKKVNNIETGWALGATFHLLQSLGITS

[3] = target: T2, Nucleoside diphosphate phosphatase ENTPD5 (Homo sapiens) (UniProt O75356); test: Inhibition of human recombinant ENTPD5 expressed in insect cells assessed as reduction in UDP hydrolysis up to 10 uM incubated for 1 hr in presence of UMP, GTP and ATP by Escherichia coli UMP kinase pyrH catalyzed UMP phosphorylation coupled luciferase assay
T2 sequence (whole entry): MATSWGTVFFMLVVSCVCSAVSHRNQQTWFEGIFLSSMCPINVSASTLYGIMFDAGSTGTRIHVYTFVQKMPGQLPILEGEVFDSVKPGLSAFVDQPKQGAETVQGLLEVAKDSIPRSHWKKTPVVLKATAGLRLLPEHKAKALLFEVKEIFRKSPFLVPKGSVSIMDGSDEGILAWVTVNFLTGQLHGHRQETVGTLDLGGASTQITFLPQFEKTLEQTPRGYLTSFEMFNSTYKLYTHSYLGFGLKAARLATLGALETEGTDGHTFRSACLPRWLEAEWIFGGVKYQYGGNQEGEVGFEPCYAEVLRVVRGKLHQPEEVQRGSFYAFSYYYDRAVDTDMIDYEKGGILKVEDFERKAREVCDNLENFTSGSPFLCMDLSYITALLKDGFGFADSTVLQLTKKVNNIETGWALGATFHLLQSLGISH

[4] = target: T2, Nucleoside diphosphate phosphatase ENTPD5 (Homo sapiens); test: Inhibition of human recombinant ENTPD5 expressed in insect cells assessed as reduction in UDP hydrolysis at 1 uM incubated for 1 hr in presence of UMP, GTP and ATP by Escherichia coli UMP kinase pyrH catalyzed UMP phosphorylation coupled luciferase assay
[5] = target: T3, Uridylate kinase (Escherichia coli (strain K12)) (UniProt P0A7E9); test: Inhibition of recombinant Escherichia coli UMP kinase pyrH catalyzed UMP phosphorylation in presence of GTP and ATP incubated for 1 hr by luminescence based assay
T3 sequence (whole entry): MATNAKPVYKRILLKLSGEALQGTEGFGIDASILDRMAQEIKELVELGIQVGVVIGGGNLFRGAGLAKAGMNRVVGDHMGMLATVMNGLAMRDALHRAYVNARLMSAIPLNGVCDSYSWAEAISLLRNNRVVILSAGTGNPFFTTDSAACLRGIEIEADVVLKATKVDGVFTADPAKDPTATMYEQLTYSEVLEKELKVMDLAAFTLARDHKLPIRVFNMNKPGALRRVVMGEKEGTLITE

[6] = target: T2, Nucleoside diphosphate phosphatase ENTPD5 (Homo sapiens); test: Inhibition of human recombinant ENTPD5 expressed in insect cells assessed as reduction in reduction in UDP hydrolysis by measuring inorganic phosphate release incubated for 1 hr by malachite green based assay
LNCaP [7] = test: Antitumor activity against human LNCAP cells xenografted in mouse assessed as induction of tumor shrinkage at 1 to 100 mg/kg, ip dosed every other day and measured after 6 weeks by microscopy; format: functional, organism-based

| SMILES | Activity (LNCaP [1]) | inhibition [2] | inhibition [3] | inhibition [4] | inhibition [5] | inhibition [6] | Activity (LNCaP [7]) |
| --- | --- | --- | --- | --- | --- | --- | --- |
| O=C1NC(=S)N(c2ccccc2)C(=O)/C1=C/c1ccc(-c2cc([N+](=O)[O-])ccc2Cl)o1 | Active | Active | Dose-dependent effect | Active | inactive | Active | Active |
| S=C(Nc1ccc2nc(-c3ccco3)c(-c3ccco3)nc2c1)N1CCCCCC1 | Active | Active | Dose-dependent effect | Active | inactive | Active | Active |
| O=C1NC(=O)N(c2ccc(I)cc2)C(=O)/C1=C/c1cnn(-c2ccccc2)c1 | Active | Active | Dose-dependent effect | Active | inactive | Active | Active |
| O=C1NC(=O)C(=Cc2ccc(-c3ccc(I)cc3)o2)C(=O)N1 | Active | Active | Dose-dependent effect | Active | inactive | Active | Active |
| O=C1NC(=S)N(c2ccc(Cl)cc2)C(=O)/C1=C\c1ccc(-c2ccc([N+](=O)[O-])cc2)o1 | Active | Active | Dose-dependent effect | Active | inactive | Active | Active |
| Cc1ccc2nc(Nc3nc(O)c(CCC(C)C)c(=O)[nH]3)nc(C)c2c1 | Active | Active | Dose-dependent effect | Active | inactive | Active | Active |
| O=C(Oc1ccc2ccccc2c1)c1ccc2c(c1)C1C=CCC1C(C(=O)O)N2 (stereo not drawn) | Active | Active | Dose-dependent effect | Active | inactive | Active | Active |
| O=C1NC(=S)NC(=O)C1=Cc1ccc(-c2cc(Cl)ccc2Cl)o1 | Active | Active | Dose-dependent effect | Active | inactive | Active | Active |
| O=C1NC(=S)N(c2ccccc2)C(=O)/C1=C/c1ccc(-c2ccc(F)cc2)o1 | Active | Active | Dose-dependent effect | Active | inactive | Active | Active |
| O=C1NC(=S)NC(=O)C1=Cc1ccc(-c2ccc(Br)cc2)o1 | Active | Active | Dose-dependent effect | Active | inactive | Active | Active |
| O=C1NC(=S)N(c2ccccc2F)C(=O)/C1=C/c1cccn1-c1ccc(Br)cc1 | Active | Active | Dose-dependent effect | Active | inactive | Active | Active |
| O=C1NC(=S)N(c2ccccc2)C(=O)/C1=C/c1cccn1-c1ccc(Cl)cc1 | Active | Active | Dose-dependent effect | Active | inactive | Active | Active |
| O=C1NC(=S)NC(=O)C1=Cc1ccc(-c2ccc(Cl)c(Cl)c2)o1 | Active | Active | Dose-dependent effect | Active | inactive | Active | Active |
| O=C1/C(=C/c2ccc(O)c([N+](=O)[O-])c2)SC(=S)N1c1cccc(Cl)c1 | Active | Active | Dose-dependent effect | Active | inactive | Active | Active |
| O=C(CN1C(=O)/C(=C2\SC(N3CCOCC3)=NC2=O)c2ccccc21)Nc1cccc(Br)c1 | Active | Active | Dose-dependent effect | Active | inactive | Active | Active |
| COCCNC(=O)Cn1cc(/C=C2\C(=O)NC(=O)N(C3CCCCC3)C2=O)c2ccccc21 | – | – | Dose-dependent effect | Active | inactive | Active | – |
| O=C1C=C/C(=C\NNc2nc(-c3ccccc3)c(CC(=O)O)s2)C(O)=C1 | – | – | Dose-dependent effect | Active | inactive | Active | – |
| O=C(O)c1ccc(-c2ccc(/C=C3\SC(=S)N(c4ccc([N+](=O)[O-])cc4)C3=O)o2)cc1 | – | – | Dose-dependent effect | Active | inactive | Active | – |
| COc1ccc(/C=C2\SC(=S)N(CCCC(=O)NNC(=O)c3ccccc3O)C2=O)cc1 | – | – | Dose-dependent effect | Active | inactive | Active | – |
| C=C[S+]([O-])c1sc(Cl)c(N2CCN(c3c(Cl)sc([S+]([O-])C=C)c3[N+](=O)[O-])CC2)c1[N+](=O)[O-] (stereo not drawn) | – | – | Dose-dependent effect | Active | inactive | Active | – |
| O=C1/C(=C/c2ccc(-c3ccc(Br)cc3)o2)SC(=S)N1Cc1ccco1 | – | – | Dose-dependent effect | Active | inactive | Active | – |
| C#CCn1cc(/C=C2\C(=O)NC(=S)N(c3ccc(Br)cc3)C2=O)c2ccccc21 | – | – | Dose-dependent effect | Active | inactive | Active | – |
| O=S(=O)(c1cccc(C(F)(F)F)c1)N(CCc1csc2nc(-c3ccc4ccccc4c3)cn12)Cc1ccco1 | – | – | Dose-dependent effect | Active | inactive | Active | – |
| Clc1ccc(C2N=c3c(-c4ccco4)nnc(-c4nc5ccccc5s4)c3=N2)cc1 (stereo not drawn) | – | – | Dose-dependent effect | Active | inactive | Active | – |
| O=C(Nc1ccc2c(c1)S(=O)(=O)c1cc(NC(=O)c3cccs3)ccc1-2)c1cccs1 | – | – | Dose-dependent effect | Active | inactive | Active | – |
| O=C1NC(=S)NC(=O)C1=Cc1cn(-c2ccccc2)nc1-c1cc2c(ccc3ccccc32)oc1=O | – | – | Dose-dependent effect | Active | inactive | Active | – |
| O=C(c1ccc2c(c1)C1C=CCC1C(c1ccc(Br)cc1)N2)N1CCCCCC1 (stereo not drawn) | – | – | Dose-dependent effect | Active | inactive | Active | – |
